# Results taken from the supplement of paper PMC10307832.
# Experiments:
# Assay in all cases: relative viability (nuclei count vs DMSO), 5 days (fraction); higher = more cells survive
# A-427 = tested on: A-427
# Summary of the method: (§1)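 Relative viability is defined as nuclei in treated wells over nuclei in vehicle wells. Duplicate plates were run and medians reported. Lung cancer cell lines in 1536-well plates were dosed by pin tool one day after seeding, with one drug or with a fixed anchor-drug dose plus five library-drug doses (not always all listed) in √10 steps, and nuclei were counted after 5 days.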
# CAL-12T = tested on: CAL-12T
# Summary of the method: as §1
# COR-L 105 = tested on: COR-L 105
# Summary of the method: as §1
# COR-L23 = tested on: COR-L23
# Summary of the method: as §1
# EPLC-272H = tested on: EPLC-272H
# Summary of the method: as §1
# HOP-62 = tested on: HOP-62
# Summary of the method: as §1
# LXF-289 = tested on: LXF-289
# Summary of the method: as §1
# NCI-H1395 = tested on: NCI-H1395
# Summary of the method: as §1
# NCI-H1651 = tested on: NCI-H1651
# Summary of the method: as §1
# NCI-H1975 = tested on: NCI-H1975
# Summary of the method: as §1
# NCI-H1993 = tested on: NCI-H1993
# Summary of the method: as §1
# NCI-H2023 = tested on: NCI-H2023
# Summary of the method: as §1
# NCI-H2085 = tested on: NCI-H2085
# Summary of the method: as §1
# NCI-H2087 = tested on: NCI-H2087
# Summary of the method: as §1
# NCI-H2170 = tested on: NCI-H2170
# Summary of the method: as §1
# NCI-H3122 = tested on: NCI-H3122
# Summary of the method: as §1
# NCI-H596 = tested on: NCI-H596
# Summary of the method: as §1
# NCI-H647 = tested on: NCI-H647
# Summary of the method: as §1
# PC-14 = tested on: PC-14
# Summary of the method: as §1
# RERF-LC-KJ = tested on: RERF-LC-KJ
# Summary of the method: as §1
# SK-MES-1 = tested on: SK-MES-1
# Summary of the method: as §1
compound,measurement,setting,value
Cc1cnc(-c2cnc(NCCNc3ccc(C#N)cn3)nc2-c2ccc(Cl)cc2Cl)[nH]1 + CC1(C)CCC(c2ccc(Cl)cc2)=C(CN2CCN(c3ccc(C(=O)NS(=O)(=O)c4ccc(N[C@H](CCN5CCOCC5)CSc5ccccc5)c(S(=O)(=O)C(F)(F)F)c4)cc3)CC2)C1 [Navitoclax] (partner 0.5 µM),relative viability,A-427; first compound 0.08 µM,0.939
same,relative viability,A-427; first compound 0.253 µM,0.947
same,relative viability,A-427; first compound 0.8 µM,0.973
same,relative viability,A-427; first compound 2.53 µM,0.925
same,relative viability,CAL-12T; first compound 0.08 µM,1.29
same,relative viability,CAL-12T; first compound 0.253 µM,1.15
same,relative viability,CAL-12T; first compound 0.8 µM,1.18
same,relative viability,CAL-12T; first compound 2.53 µM,1.06
same,relative viability,COR-L 105; first compound 0.08 µM,0.875
same,relative viability,COR-L 105; first compound 0.253 µM,0.686
same,relative viability,COR-L 105; first compound 0.8 µM,1.54
same,relative viability,COR-L 105; first compound 2.53 µM,0.558
same,relative viability,COR-L23; first compound 0.08 µM,1.07
same,relative viability,COR-L23; first compound 0.253 µM,1.03
same,relative viability,COR-L23; first compound 0.8 µM,1.09
same,relative viability,COR-L23; first compound 2.53 µM,1.06
same,relative viability,EPLC-272H; first compound 0.08 µM,1.22
same,relative viability,EPLC-272H; first compound 0.253 µM,1.31
same,relative viability,EPLC-272H; first compound 0.8 µM,1.12
same,relative viability,EPLC-272H; first compound 2.53 µM,1.07
same,relative viability,HOP-62; first compound 0.08 µM,1.13
same,relative viability,HOP-62; first compound 0.253 µM,0.843
same,relative viability,HOP-62; first compound 0.8 µM,0.997
same,relative viability,HOP-62; first compound 2.53 µM,0.768
same,relative viability,LXF-289; first compound 0.08 µM,0.934
same,relative viability,LXF-289; first compound 0.253 µM,0.873
same,relative viability,LXF-289; first compound 0.8 µM,0.924
same,relative viability,LXF-289; first compound 2.53 µM,1.01
same,relative viability,NCI-H1395; first compound 0.08 µM,1.25
same,relative viability,NCI-H1395; first compound 0.253 µM,1.15
same,relative viability,NCI-H1395; first compound 0.8 µM,1.19
same,relative viability,NCI-H1395; first compound 2.53 µM,1.15
same,relative viability,NCI-H1651; first compound 0.08 µM,1.09
same,relative viability,NCI-H1651; first compound 0.253 µM,0.874
same,relative viability,NCI-H1651; first compound 0.8 µM,1.06
same,relative viability,NCI-H1651; first compound 2.53 µM,1.2
same,relative viability,NCI-H1975; first compound 0.08 µM,1.12
same,relative viability,NCI-H1975; first compound 0.253 µM,0.982
same,relative viability,NCI-H1975; first compound 0.8 µM,0.933
same,relative viability,NCI-H1975; first compound 2.53 µM,0.567
same,relative viability,NCI-H1993; first compound 0.08 µM,0.976
same,relative viability,NCI-H1993; first compound 0.253 µM,0.906
same,relative viability,NCI-H1993; first compound 0.8 µM,0.996
same,relative viability,NCI-H1993; first compound 2.53 µM,0.882
same,relative viability,NCI-H2023; first compound 0.08 µM,1.01
same,relative viability,NCI-H2023; first compound 0.253 µM,0.977
same,relative viability,NCI-H2023; first compound 0.8 µM,1.08
same,relative viability,NCI-H2023; first compound 2.53 µM,1.09
same,relative viability,NCI-H2085; first compound 0.08 µM,1.17
same,relative viability,NCI-H2085; first compound 0.253 µM,1.15
same,relative viability,NCI-H2085; first compound 0.8 µM,1.03
same,relative viability,NCI-H2085; first compound 2.53 µM,1.16
same,relative viability,NCI-H2087; first compound 0.08 µM,0.88
same,relative viability,NCI-H2087; first compound 0.253 µM,0.966
same,relative viability,NCI-H2087; first compound 0.8 µM,1.03
same,relative viability,NCI-H2087; first compound 2.53 µM,0.967
same,relative viability,NCI-H2170; first compound 0.08 µM,0.638
same,relative viability,NCI-H2170; first compound 0.253 µM,0.51
same,relative viability,NCI-H2170; first compound 0.8 µM,0.517
same,relative viability,NCI-H2170; first compound 2.53 µM,0.537
same,relative viability,NCI-H3122; first compound 0.08 µM,0.988
same,relative viability,NCI-H3122; first compound 0.253 µM,0.881
same,relative viability,NCI-H3122; first compound 0.8 µM,0.977
same,relative viability,NCI-H3122; first compound 2.53 µM,0.994
same,relative viability,NCI-H596; first compound 0.08 µM,1.1
same,relative viability,NCI-H596; first compound 0.253 µM,0.79
same,relative viability,NCI-H596; first compound 0.8 µM,0.882
same,relative viability,NCI-H596; first compound 2.53 µM,0.897
same,relative viability,NCI-H647; first compound 0.08 µM,1.19
same,relative viability,NCI-H647; first compound 0.253 µM,0.718
same,relative viability,NCI-H647; first compound 0.8 µM,1.07
same,relative viability,NCI-H647; first compound 2.53 µM,0.723
same,relative viability,PC-14; first compound 0.08 µM,1.1
same,relative viability,PC-14; first compound 0.253 µM,0.883
same,relative viability,PC-14; first compound 0.8 µM,1
same,relative viability,PC-14; first compound 2.53 µM,0.895
same,relative viability,RERF-LC-KJ; first compound 0.08 µM,1.08
same,relative viability,RERF-LC-KJ; first compound 0.253 µM,0.626
same,relative viability,RERF-LC-KJ; first compound 0.8 µM,0.905
same,relative viability,RERF-LC-KJ; first compound 2.53 µM,0.776
same,relative viability,SK-MES-1; first compound 0.08 µM,1.19
same,relative viability,SK-MES-1; first compound 0.253 µM,1.14
same,relative viability,SK-MES-1; first compound 2.53 µM,1.14
